Assay results reported in patent US7601734B2, “Cyclic amine compound” (Taisho Pharmaceutical Co., Ltd., priority 2004, dated 2009).
pIC50: −log10 of the molar value. Like-named read-outs stand apart in the source and are kept apart here.

Experiments:
human α2C-adrenoceptor = target: T1, human α2C-adrenoceptor (Homo sapiens, UniProt P18825); test: α2C-Adrenoceptor binding experiment ([3H] MK912 displacement, crude membrane sample); details: for IC50: membranes of human α2C-adrenoceptor expressing COS-1 cells, [3H] MK912 0.08 nM, 25° C., 60 minutes, read-out: Ability to Inhibit (IC50, nM) α 2C
T1 construct: expressed in transfected cells; host or cells: COS-1 cells
T1 sequence (P18825 1-462): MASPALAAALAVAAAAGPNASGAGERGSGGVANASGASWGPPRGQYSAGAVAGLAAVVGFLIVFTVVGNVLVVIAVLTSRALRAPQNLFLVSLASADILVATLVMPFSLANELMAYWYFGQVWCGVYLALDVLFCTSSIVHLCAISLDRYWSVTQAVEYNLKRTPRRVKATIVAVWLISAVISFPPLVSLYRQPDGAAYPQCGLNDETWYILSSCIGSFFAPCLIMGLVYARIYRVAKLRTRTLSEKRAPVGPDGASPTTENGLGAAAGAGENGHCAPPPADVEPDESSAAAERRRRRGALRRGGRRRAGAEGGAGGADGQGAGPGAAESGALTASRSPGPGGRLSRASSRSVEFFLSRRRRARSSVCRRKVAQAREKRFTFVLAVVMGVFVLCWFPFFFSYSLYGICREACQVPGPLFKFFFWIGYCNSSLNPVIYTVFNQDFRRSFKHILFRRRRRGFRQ
Experimental: The subject experiment was performed by a method improved from the method described in Uhlen et al., Journal of Pharmacology and Experimental Therapeutics (1994), 1558-1565. Briefly, human α2C-adrenoceptor expressing COS-1 cells were homogenized with 50 mM Tris-HCl buffer (pH 7.4) containing 12.5 mM magnesium hydrochloride and 1 mM EDTA. The resultant homogenate was centrifuged at 48,000×g for 20 minutes at 4° C. twice. The precipitate was suspended in 50 mM Tris-HCl buffer (pH 7.4) containing 12.5 mM magnesium hydrochloride and 1 mM EDTA to give a protein concentration of 150 μg/ml. This suspension was used in binding experiments as a crude membrane sample. The crude membrane sample (0.5 ml, 75 μg protein) was reacted with [^3H] MK912 (final concentration 0.08 nM) at 25° C. for 60 minutes. After completion of the reaction, the reaction mixture was vacuum filtered on GF/B glass fiber filter pre-immersed in 0.3% polyethyleneimine for 2 hours, using a cell harvester for binding experiments. The filter was placed in a glass vial containing 8 ml of Aquasol 2, and the radioactivity thereof was measured with a liquid scintillation counter. The amount of binding in the presence of 10 μM rauwolcine was taken as non-specific binding. The value obtained by subtracting non-specific binding from the total binding in the absence of 10 μM rauwolcine was taken as specific binding. Each of the test compounds was dissolved in 100% dimethyl sulfoxide solution and added to the membrane sample simultaneously with [^3H] MK912. IC50 values were calculated from inhibition curves at concentrations from 0.1 nM to 1 μM.

human α2A-adrenoceptor = target: T2, human α2A-adrenoceptor (Homo sapiens, UniProt P08913); test: α2A-Adrenoceptor binding experiment ([3H] MK912 displacement, crude membrane sample); details: membranes of human α2A-adrenoceptor expressing COS-7 cells; [3H] MK912 1 nM; 25° C., 60 minutes; read-out: Ability to Inhibit (IC50, nM) α 2A
T2 construct: expressed in transfected cells; host or cells: COS-7 cells
T2 sequence (P08913 1-465): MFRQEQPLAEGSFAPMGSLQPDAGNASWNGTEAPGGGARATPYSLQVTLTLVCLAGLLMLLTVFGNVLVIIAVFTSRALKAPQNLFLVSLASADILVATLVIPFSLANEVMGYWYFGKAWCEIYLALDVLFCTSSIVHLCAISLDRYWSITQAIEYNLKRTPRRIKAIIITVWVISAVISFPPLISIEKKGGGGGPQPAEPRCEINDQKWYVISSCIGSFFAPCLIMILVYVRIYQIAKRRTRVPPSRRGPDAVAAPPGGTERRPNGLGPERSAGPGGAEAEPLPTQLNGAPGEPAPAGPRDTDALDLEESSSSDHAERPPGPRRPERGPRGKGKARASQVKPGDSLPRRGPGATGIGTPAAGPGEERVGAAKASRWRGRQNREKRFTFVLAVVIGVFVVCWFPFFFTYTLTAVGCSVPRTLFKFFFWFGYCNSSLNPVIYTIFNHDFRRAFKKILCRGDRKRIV
Experimental: The subject experiment was performed by a method improved from the method described in Uhlen et al., Journal of Pharmacology and Experimental Therapeutics (1994), 1558-1565. Briefly, human α2A-adrenoceptor expressing COS-7 cells were homogenized with 50 mM Tris-HCl buffer (pH 7.4) containing 12.5 mM magnesium hydrochloride and 1 mM EDTA. The resultant homogenate was centrifuged at 48,000×g for 20 minutes at 4° C. twice. The precipitate was suspended in 50 mM Tris-HCl buffer (pH 7.4) containing 12.5 mM magnesium hydrochloride and 1 mM EDTA to give a protein concentration of 200 μg/ml. This suspension was used in binding experiments as a crude membrane sample. The crude membrane sample (0.1 ml, 20 μg protein, reaction volume 0.2 ml) was reacted with [^3H] MK912 (final concentration 1 nM) at 25° C. for 60 minutes. After completion of the reaction, the reaction mixture was vacuum filtered on GF/C glass fiber plate pre-immersed in 0.3% polyethyleneimine for 2 hours, using a Filtermate Harvester. Microscinti-0 (40 μl) was added to the plate, and the radioactivity was measured with Top Count (PerkinElmer). The amount of binding in the presence of 10 μM rauwolcine was taken as non-specific binding. The value obtained by subtracting non-specific binding from the total binding in the absence of 10 μM rauwolcine was taken as specific binding. Each of the test compounds was dissolved in 100% DMSO solution and added to the membrane sample simultaneously with [^3H] MK912. IC50 values were calculated from inhibition curves at concentrations from 1 nM to 10 μM.

| Structure (SMILES) | IC50 (human α2C-adrenoceptor) | IC50 (human α2A-adrenoceptor) | melting point | pIC50 (human α2C-adrenoceptor) |
| --- | --- | --- | --- | --- |
| Cn1c2c(c3ccccc31)CN(CCCC(C#N)(c1ccccc1)c1ccccc1)CC2 [Compound 9, 5-(5-methyl-1,3,4,5-tetrahydro-2H-pyrido[4,3-b]indole-2-yl)-2,2-diphenyl-pentanenitrile] | 280 nM | 4830 nM | – | – |
| c1ccc(C(CCCN2CCc3oc4ccccc4c3C2)c2ccccc2)cc1 [Compound 15, 2-(4,4-diphenylbutyl)-1,2,3,4-tetrahydro-[1]-benzofuro[3,2-C]pyridine] | 10 nM | 243 nM | – | – |
| N#CC(CCCN1CCc2sc3ccccc3c2C1)(c1ccccc1)c1ccccc1 [Compound 7, 5-(3,4-dihydro-[1]-benzothieno[3,2-C]pyridine-2(1H)-yl)-2,2-diphenyl-pentanenitrile] | 299 nM | 1480 nM | – | – |
| Cl.NC(=O)C(CCCN1CCc2oc3ccccc3c2C1)(c1ccc(F)cc1)c1ccc(F)cc1 [Compound 3, 5-(3,4-dihydro[1]benzofuro[3,2-c]pyridine-2(1H)-yl)-2,2-bis(4-fluorophenyl)pentanoic acid amide] | 5.8 nM | 204 nM | 174 to 179.5 °C | – |
| Cl.N#CC(CCCN1CCc2oc3ccccc3c2C1)(c1ccccc1)c1ccccc1 [Compound 5, 5-(3,4-dihydro[1]benzofuro[3,2-c]pyridine-2(1H)-yl)-2,2-diphenylpentanenitrile] | 5.7 nM | 139 nM | 195 to 199 °C | – |
| O=C(O)C(CCCN1CCc2oc3ccccc3c2C1)(c1ccc(F)cc1)c1ccc(F)cc1 [Compound 2, 5-(3,4-dihydro[1]benzofuro[3,2-c]pyridine-2(1H)-yl)-2,2-bis(4-fluorophenyl)pentanoic acid] | 142 nM | 935 nM | – | – |
| COC(=O)C(CCCN1CCc2oc3ccccc3c2C1)(c1ccc(F)cc1)c1ccc(F)cc1 [Compound 1, Methyl 5-(3,4-dihydro[1]benzofuro[3,2-c]pyridine-2(1H)-yl)-2,2-bis(4-fluorophenyl)pentanoate] | 28 nM | 416 nM | – | – |
| N#CC(CCCN1CCc2oc3ccc(F)cc3c2C1)(c1ccccc1)c1ccccc1 [Compound 10, 5-(8-fluoro-3,4-dihydro-[1]-benzofuro[3,2-C]pyridine-2(1H)-yl)-2,2-diphenyl-pentanenitrile] | – | 504 nM | – | 7.55 |
| N#CC1(CCCN2CCc3oc4ccccc4c3C2)c2ccccc2Oc2ccccc21 [Compound 16, 9-[3-(3,4-dihydro-[1]-benzofuro[3,2-C]pyridine-2(1H)-yl)-propyl]-9H-xanthene-carbonitrile] | 12 nM | 102 nM | – | – |
| N#CC(CCCN1CCc2[nH]c3ccccc3c2C1)(c1ccccc1)c1ccccc1 [Compound 8, 2,2-diphenyl-5-(1,3,4,5-tetrahydro-2H-pyrido[4,3-b]indole-2-yl)-pentanenitrile] | 121 nM | 1290 nM | – | – |
| COc1ccc2oc3c(c2c1)CN(CCCC(C#N)(c1ccccc1)c1ccccc1)CC3 [Compound 13, 5-(8-methoxy-3,4-dihydro-[1]-benzofuro[3,2-C]pyridine-2(1H)-yl)-2,2-diphenyl-pentanenitrile] | 53 nM | 563 nM | – | – |
| N#CC(CCCN1CCc2oc3ccc(Cl)cc3c2C1)(c1ccccc1)c1ccccc1 [Compound 11, 5-(8-chloro-3,4-dihydro-[1]-benzofuro[3,2-C]pyridine-2(1H)-yl)-2,2-diphenyl-pentanenitrile] | 203 nM | 1720 nM | – | – |
| Cl.N#CC(CCCN1CCc2oc3ccccc3c2C1)(c1ccc(F)cc1)c1ccc(F)cc1 [Compound 4, 5-(3,4-dihydro[1]benzofuro[3,2-c]pyridine-2(1H)-yl)-2,2-bis(4-fluorophenyl)pentanenitrile] | 9.3 nM | 136 nM | 113.5 to 120.5 °C | – |
